Test: Acute toxicity in Sprague-Dawley rat assessed as mortality administered orally as single dose measured up to 1 month
Details: in vivo, po

In the case of `Cc1nn(-c2ccccc2)c(Oc2ccc(-c3nc4cc(C(=O)O)ccc4[nH]3)cc2)c1[N+](=O)[O-]`, the LD50 is reported as 400 mg/kg.

— ChEMBL document CHEMBL4033655, “Part I: Design, synthesis and biological evaluation of novel pyrazole-benzimidazole conjugates as checkpoint kinase 2 (Chk2) inhibitors with studying their activities alone and in combination with genotoxic drugs” (Eur J Med Chem, 2017)
